Experiments:
[1] = target: T1, Mitogen-activated protein kinase kinase kinase 2 (Homo sapiens) (UniProt Q9Y2U5); test: Inhibition of human MEKK2 at 18.6 nM by HotSpot assay relative to control
T1 sequence (whole entry): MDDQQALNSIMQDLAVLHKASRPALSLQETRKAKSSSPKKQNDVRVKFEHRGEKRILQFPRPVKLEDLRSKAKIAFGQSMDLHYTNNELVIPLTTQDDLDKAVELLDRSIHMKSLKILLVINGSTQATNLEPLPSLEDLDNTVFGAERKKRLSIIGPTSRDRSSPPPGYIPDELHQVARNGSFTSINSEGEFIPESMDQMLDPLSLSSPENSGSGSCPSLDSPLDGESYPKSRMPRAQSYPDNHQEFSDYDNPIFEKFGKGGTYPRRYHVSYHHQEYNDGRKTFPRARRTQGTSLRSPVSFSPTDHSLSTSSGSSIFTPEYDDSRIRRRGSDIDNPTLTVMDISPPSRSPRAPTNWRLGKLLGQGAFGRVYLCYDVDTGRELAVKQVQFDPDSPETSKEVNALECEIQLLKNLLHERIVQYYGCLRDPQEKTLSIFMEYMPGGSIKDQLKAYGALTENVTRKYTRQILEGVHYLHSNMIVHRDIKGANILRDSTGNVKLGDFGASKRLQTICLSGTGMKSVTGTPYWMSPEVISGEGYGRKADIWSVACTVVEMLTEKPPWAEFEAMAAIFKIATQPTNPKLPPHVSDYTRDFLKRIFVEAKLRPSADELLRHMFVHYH

[2] = target: T2, Testis-specific serine/threonine-protein kinase 1 (Homo sapiens) (UniProt Q9BXA7); test: Inhibition of human TSSK1 at 18.6 nM by HotSpot assay relative to control
T2 sequence (whole entry): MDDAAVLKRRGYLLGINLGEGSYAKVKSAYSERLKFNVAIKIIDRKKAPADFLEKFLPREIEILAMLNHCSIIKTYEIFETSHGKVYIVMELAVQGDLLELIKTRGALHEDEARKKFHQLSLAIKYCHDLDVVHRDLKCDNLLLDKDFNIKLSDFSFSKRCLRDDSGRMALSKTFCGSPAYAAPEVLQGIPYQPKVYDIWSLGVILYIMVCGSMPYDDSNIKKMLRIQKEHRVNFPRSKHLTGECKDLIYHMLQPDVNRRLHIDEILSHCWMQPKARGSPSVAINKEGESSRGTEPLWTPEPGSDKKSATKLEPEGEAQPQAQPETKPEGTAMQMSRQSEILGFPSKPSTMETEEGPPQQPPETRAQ

[3] = target: Serine/threonine-protein kinase WNK3 (Homo sapiens) (UniProt Q9BYP7); test: Inhibition of human WNK3 at 18.6 nM by HotSpot assay relative to control
Sequence of Serine/threonine-protein kinase WNK3 (Homo sapiens) (Q9BYP7 whole entry): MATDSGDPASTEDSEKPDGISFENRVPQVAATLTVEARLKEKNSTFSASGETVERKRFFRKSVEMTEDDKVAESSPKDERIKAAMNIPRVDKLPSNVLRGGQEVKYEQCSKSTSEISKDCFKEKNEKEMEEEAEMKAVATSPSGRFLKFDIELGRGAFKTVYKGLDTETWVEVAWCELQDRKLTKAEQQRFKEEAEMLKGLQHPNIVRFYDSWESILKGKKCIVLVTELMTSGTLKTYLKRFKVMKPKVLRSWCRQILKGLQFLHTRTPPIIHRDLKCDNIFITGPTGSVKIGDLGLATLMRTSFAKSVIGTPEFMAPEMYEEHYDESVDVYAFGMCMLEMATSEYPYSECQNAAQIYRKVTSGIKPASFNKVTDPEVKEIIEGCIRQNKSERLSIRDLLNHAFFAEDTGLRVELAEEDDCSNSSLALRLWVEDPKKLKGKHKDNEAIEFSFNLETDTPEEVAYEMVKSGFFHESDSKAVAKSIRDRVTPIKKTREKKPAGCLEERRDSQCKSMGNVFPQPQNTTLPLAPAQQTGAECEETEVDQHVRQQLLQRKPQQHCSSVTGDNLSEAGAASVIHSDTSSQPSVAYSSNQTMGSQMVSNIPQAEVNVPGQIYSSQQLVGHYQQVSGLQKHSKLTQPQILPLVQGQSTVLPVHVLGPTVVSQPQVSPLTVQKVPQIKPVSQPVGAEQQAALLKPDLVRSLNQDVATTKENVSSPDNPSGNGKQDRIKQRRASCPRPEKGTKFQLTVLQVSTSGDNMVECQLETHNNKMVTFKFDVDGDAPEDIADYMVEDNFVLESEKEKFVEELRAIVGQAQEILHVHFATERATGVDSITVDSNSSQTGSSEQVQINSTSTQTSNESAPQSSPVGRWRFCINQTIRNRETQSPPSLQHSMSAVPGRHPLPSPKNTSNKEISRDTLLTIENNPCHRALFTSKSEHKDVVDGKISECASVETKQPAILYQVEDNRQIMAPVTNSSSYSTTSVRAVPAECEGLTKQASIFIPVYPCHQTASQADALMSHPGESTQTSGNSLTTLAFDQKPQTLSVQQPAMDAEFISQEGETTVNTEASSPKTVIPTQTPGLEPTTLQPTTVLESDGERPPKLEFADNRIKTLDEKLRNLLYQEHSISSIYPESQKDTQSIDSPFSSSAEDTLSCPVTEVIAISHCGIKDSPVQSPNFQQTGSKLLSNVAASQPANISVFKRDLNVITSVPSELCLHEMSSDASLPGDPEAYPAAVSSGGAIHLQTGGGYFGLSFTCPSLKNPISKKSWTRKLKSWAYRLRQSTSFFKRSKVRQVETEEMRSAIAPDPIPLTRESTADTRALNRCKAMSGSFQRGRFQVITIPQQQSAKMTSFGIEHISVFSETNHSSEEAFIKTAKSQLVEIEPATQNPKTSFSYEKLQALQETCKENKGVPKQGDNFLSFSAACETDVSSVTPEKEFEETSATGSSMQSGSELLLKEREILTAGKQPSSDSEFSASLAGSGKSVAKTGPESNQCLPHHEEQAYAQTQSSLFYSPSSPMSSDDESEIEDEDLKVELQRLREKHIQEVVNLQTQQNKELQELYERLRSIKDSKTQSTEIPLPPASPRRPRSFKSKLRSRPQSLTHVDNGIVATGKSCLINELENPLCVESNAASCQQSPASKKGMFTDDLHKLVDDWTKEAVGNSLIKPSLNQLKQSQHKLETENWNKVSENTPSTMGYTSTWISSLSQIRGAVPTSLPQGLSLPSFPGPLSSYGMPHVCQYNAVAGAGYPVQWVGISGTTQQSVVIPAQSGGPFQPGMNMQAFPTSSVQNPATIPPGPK

[4] = target: Calcium/calmodulin-dependent protein kinase kinase 2 (Homo sapiens) (UniProt Q96RR4); test: Inhibition of human CAMKK2 at 1.82 nM by HotSpot assay relative to control
Sequence of Calcium/calmodulin-dependent protein kinase kinase 2 (Homo sapiens) (Q96RR4 2-588 limits assumed): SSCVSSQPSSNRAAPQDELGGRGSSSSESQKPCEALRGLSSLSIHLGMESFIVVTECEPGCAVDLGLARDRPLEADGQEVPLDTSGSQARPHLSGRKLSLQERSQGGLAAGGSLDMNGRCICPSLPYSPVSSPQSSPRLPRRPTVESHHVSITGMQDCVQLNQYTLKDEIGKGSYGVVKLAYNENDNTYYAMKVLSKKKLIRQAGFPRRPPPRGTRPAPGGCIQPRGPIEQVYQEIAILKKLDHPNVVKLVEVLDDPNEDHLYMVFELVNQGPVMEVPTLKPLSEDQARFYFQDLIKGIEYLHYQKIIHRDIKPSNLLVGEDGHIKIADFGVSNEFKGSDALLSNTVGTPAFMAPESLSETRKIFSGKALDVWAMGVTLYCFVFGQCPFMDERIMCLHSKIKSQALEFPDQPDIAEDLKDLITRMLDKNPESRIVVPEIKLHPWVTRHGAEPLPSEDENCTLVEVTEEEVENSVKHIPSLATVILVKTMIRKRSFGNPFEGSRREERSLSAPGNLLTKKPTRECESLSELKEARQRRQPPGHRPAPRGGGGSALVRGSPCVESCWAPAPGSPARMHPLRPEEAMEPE

[5] = target: Homeodomain-interacting protein kinase 3 (Homo sapiens) (UniProt Q9H422); test: Inhibition of human HIPK3 at 1.82 nM by HotSpot assay relative to control
Sequence of Homeodomain-interacting protein kinase 3 (Homo sapiens) (Q9H422 whole entry, looked up): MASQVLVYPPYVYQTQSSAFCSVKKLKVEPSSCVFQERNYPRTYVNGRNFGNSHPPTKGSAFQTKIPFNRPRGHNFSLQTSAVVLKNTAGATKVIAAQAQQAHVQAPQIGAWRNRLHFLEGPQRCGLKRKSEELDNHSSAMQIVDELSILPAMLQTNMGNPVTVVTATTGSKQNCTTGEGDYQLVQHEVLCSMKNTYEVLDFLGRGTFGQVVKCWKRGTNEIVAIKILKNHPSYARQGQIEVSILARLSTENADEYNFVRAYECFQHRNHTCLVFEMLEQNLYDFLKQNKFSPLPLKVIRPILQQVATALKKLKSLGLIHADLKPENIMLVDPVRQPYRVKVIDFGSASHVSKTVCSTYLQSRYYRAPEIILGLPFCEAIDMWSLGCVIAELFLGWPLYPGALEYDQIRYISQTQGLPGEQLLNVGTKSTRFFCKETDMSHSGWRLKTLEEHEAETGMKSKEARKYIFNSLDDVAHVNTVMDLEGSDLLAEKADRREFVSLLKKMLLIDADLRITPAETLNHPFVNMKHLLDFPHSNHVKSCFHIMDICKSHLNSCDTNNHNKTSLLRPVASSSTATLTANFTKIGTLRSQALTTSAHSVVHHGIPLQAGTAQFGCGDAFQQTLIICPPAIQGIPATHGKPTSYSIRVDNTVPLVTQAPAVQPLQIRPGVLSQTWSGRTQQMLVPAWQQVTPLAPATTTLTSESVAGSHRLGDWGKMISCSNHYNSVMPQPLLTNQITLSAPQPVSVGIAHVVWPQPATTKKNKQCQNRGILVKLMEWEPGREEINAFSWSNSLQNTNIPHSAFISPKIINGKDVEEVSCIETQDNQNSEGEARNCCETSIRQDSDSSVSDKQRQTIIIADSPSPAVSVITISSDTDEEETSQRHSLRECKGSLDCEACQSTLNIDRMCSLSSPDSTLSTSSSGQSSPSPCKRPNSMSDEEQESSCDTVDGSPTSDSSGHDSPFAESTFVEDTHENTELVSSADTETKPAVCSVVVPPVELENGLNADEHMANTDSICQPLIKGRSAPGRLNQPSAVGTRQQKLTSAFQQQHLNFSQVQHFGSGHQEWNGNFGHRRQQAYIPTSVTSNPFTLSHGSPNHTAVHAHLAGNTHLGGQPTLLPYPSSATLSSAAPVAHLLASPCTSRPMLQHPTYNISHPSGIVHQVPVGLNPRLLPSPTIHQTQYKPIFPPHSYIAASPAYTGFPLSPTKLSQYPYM

[6] = target: T3, 3-phosphoinositide-dependent protein kinase 1 (Homo sapiens) (UniProt O15530); test: Inhibition of human PDPK1 at 1.82 nM by HotSpot assay relative to control
T3 sequence (whole entry): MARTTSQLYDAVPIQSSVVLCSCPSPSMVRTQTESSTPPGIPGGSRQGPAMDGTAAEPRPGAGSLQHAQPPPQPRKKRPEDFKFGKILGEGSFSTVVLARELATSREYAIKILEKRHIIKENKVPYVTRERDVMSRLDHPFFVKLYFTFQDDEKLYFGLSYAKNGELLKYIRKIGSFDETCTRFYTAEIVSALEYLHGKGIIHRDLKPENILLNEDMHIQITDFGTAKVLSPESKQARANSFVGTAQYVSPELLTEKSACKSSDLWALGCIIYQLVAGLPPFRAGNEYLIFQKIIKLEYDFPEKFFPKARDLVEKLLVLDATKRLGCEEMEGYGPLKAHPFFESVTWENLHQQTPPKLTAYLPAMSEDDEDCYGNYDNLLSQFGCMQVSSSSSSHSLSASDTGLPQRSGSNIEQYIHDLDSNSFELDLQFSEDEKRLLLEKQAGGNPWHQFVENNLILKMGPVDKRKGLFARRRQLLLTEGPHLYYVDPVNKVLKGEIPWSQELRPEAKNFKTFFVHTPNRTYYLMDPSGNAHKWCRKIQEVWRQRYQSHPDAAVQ

[7] = target: Leukocyte tyrosine kinase receptor (Homo sapiens) (UniProt P29376); test: Inhibition of human LTK at 1.82 nM by HotSpot assay relative to control
Sequence of Leukocyte tyrosine kinase receptor (Homo sapiens) (P29376 whole entry): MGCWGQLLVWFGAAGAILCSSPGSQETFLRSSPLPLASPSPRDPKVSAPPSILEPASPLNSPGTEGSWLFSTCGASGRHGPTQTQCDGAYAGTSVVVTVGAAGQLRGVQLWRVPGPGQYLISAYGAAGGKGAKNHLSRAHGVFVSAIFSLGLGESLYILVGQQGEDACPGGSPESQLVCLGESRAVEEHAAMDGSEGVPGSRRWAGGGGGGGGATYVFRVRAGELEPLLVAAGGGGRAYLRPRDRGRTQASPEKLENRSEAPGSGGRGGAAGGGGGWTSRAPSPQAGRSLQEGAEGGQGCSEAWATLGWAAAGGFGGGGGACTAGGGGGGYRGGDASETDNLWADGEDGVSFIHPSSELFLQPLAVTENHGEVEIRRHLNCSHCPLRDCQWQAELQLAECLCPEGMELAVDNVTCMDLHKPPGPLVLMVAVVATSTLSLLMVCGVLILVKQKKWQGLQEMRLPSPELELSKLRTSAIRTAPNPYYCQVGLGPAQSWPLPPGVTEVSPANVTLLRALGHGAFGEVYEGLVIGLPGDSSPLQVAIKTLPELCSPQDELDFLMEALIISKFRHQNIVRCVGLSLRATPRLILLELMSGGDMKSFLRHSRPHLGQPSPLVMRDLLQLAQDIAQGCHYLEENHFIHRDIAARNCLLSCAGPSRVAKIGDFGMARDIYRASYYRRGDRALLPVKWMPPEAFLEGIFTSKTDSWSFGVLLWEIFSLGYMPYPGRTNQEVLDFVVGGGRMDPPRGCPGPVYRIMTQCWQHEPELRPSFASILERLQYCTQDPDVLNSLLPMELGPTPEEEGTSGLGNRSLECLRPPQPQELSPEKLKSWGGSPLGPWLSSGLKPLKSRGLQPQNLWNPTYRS

Structure (SMILES) | inhibition [1] [%] | inhibition [2] [%] | inhibition [3] [%] | inhibition [4] [%] | inhibition [5] [%] | inhibition [6] [%] | inhibition [7] [%]
C[C@]1(O)C[C@@H](c2nc(-c3ccc4ccc(-c5ccccc5)nc4c3)c3c(N)nccn32)C1 | -2.2 | -3.16 | 6.05 | – | – | – | –
C[C@@]1(C(=O)Nc2ccc(F)nc2)CCCN1c1nc(Nc2cc(C3CC3)n[nH]2)c2cccn2n1 | – | – | – | 26.5 | -3.9 | -0.32 | -7.41

Source: ChEMBL document CHEMBL5653615 (J Biol Chem, 2013)
